Literature values as cited in patent US20090215859A1, “Compositions and methods for modulating dhr96” (priority 2004, published 2009).

Key:
[1] = molecular target: T1, GAL4-USP fusion protein (Drosophila melanogaster, UniProt P20153+P34021); conditions: dependent on its EcR partner; cited from earlier work
T1 construct: host or cells: tissues dissected from transgenic Drosophila larvae
T1 sequence (P20153 239-498 limits assumed): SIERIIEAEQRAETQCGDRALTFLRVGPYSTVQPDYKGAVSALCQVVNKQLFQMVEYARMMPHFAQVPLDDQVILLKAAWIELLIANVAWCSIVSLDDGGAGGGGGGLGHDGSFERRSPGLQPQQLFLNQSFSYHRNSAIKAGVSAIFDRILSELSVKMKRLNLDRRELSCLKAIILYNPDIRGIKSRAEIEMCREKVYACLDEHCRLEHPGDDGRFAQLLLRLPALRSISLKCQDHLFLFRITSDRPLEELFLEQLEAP
T1 sequence (P34021 1-878): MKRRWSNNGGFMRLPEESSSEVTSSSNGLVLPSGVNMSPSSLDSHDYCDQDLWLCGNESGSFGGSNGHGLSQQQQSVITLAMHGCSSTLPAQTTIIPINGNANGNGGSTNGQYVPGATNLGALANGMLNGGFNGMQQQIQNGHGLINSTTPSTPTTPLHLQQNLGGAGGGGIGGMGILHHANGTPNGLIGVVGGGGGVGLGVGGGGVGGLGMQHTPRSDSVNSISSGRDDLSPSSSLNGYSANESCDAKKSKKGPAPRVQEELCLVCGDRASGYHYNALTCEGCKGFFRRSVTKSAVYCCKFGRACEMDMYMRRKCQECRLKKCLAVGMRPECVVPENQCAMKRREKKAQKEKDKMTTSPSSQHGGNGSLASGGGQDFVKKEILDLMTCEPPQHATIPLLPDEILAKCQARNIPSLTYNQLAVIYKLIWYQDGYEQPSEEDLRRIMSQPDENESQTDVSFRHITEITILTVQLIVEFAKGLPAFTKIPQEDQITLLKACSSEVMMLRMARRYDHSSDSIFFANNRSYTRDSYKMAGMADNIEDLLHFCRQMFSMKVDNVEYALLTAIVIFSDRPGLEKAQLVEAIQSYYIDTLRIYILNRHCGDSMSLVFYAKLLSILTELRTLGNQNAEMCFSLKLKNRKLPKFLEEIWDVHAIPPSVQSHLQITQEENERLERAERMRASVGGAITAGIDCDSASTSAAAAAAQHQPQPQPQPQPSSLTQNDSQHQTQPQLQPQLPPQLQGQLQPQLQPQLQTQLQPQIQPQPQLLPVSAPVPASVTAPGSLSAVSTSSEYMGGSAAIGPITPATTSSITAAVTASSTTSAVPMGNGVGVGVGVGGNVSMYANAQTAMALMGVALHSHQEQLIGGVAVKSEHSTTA

[2] = tested on: DHR38; conditions: cultured larval organs; cited from earlier work
[3] = molecular target: T2, PXR (Homo sapiens, UniProt O75469); conditions: cited from earlier work
T2 sequence (O75469 1-434): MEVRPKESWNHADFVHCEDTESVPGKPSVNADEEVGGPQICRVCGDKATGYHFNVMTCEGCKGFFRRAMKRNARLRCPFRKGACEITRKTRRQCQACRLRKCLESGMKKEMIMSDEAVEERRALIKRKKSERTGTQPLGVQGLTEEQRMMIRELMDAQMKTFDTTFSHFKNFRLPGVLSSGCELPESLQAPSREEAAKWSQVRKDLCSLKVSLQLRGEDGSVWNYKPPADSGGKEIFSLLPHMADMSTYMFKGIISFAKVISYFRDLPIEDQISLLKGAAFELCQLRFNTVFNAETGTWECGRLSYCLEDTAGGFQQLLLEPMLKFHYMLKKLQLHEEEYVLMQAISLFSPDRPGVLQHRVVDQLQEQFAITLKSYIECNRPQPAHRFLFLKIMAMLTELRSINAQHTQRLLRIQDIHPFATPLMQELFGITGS

Structure (SMILES)	Activation of the GAL4-USP fusion protein [1]	Activation of DHR38 in the GAL4-LBD system [2]	Action on PXR [3]
CC(C)(O)CC[C@@H](O)[C@](C)(O)[C@H]1CC[C@@]2(O)C3=CC(=O)[C@@H]4C[C@@H](O)[C@@H](O)C[C@]4(C)[C@H]3CC[C@]12C [20-hydroxyecdysone]	potent activator	not	
COc1cc2c(cc1O)CCN[C@]21CS[C@@H]2c3c(OC(C)=O)c(C)c4c(c3[C@H](COC1=O)N1[C@@H]2[C@H]2c3c(cc(C)c(OC)c3O)C[C@@H]([C@@H]1O)N2C)OCO4 [ecteinascidin-743]			antagonist
